Literature values as cited in patent US20160331866A1, “TISSUE REGENERATION MEMBRANE FOR REPAIR AND REGENERATION OF PERIPHERAL NERVE” (NATIONAL CHENG KUNG UNIVERSITY, priority 2015, published 2016).

Settings: conventionally oral dose form

| SMILES | concentration of the active ingredient in the blood |
| --- | --- |
| COc1ccc2c(c1)c(CC(=O)O)c(C)n2C(=O)c1ccc(Cl)cc1 [Indomethacin] | 160 µM |
| CC(c1cc2ccccc2s1)N(O)C(N)=O (stereo not shown) [Zileuton] | 8.46 to 25.38 µM |
| CC(C)(O)c1ccccc1CC[C@@H](SCC1(CC(=O)O)CC1)c1cccc(/C=C/c2ccc3ccc(Cl)cc3n2)c1 [Montelukast] | 20 ng/mL |
| CC(=O)Oc1ccccc1C(=O)O [aspirin, acetylsalicylic acid] | 832 to 1660 µM |
